Data published in ChEMBL document CHEMBL4177750, “Imidazopyrazinones (IPYs): Non-Quinolone Bacterial Topoisomerase Inhibitors Showing Partial Cross-Resistance with Quinolones” (J Med Chem, 2018).
Converted amounts (≈) assume the structure as drawn. The source made the active and inactive calls. The rule behind the calls is not given here.

tested on: not listed separately; assay: Metabolic stability in human liver microsomes; format: ADME, microsome; settings: not given

| Structure (SMILES) | Stability |
| --- | --- |
| CC(=O)Nc1ccc(/C=c2\c3ccccc3c3c2n2ccnc2c(=O)n3C)cc1 | Unstable |

tested on: Staphylococcus aureus; assay: Antibacterial activity against methicillin-resistant Staphylococcus aureus ATCC 33592 after 20 to 22 hrs in presence of 50% mouse serum; format: functional, organism-based; settings: not given

| Structure (SMILES) | Activity |
| --- | --- |
| N[C@H]1CCN(c2cc3c(cc2F)c2nc[nH]c2c(=O)n3C2CC2)C1 | Active |
| O=c1c2nccn2c2cc(F)c(-c3ccncc3)cc2n1C1CC1 | Active |

tested on: not listed separately; assay: Metabolic stability in mouse plasma at 1 uM after 4 hrs; format: ADME, cell-free; settings: read-out: Stability

| Structure (SMILES) | remaining at 4 h, 1 µM |
| --- | --- |
| O=c1c2nccn2c2cc(F)c(-c3ccncc3)cc2n1C1CC1 | 80 to 120% |

tested on: not listed separately; assay: Drug metabolism in human liver microsomes at 5 uM after 20 mins in presence of NADPH; format: ADME, microsome; settings: read-out: Drug metabolism

| Structure (SMILES) | metabolised at 20 min, 5 µM |
| --- | --- |
| O=c1c2nccn2c2cc(F)c(-c3ccncc3)cc2n1C1CC1 | 13% |

tested on: not listed separately; assay: Drug degradation in DMSO solution in presence of mercaptoethanol measured within 1 hr; format: physicochemical; settings: DMSO solution with mercaptoethanol; read-out: Drug degradation

| Structure (SMILES) | degraded at 1 h |
| --- | --- |
| CC(=O)Nc1ccc(/C=c2\c3ccccc3c3c2n2ccnc2c(=O)n3C)cc1 | > 50% |

tested on: not listed separately; assay: Permeability across human Caco2 cells; format: ADME, cell-based; settings: Caco-2

| Structure (SMILES) | permeability |
| --- | --- |
| CC(=O)Nc1ccc(/C=c2\c3ccccc3c3c2n2ccnc2c(=O)n3C)cc1 | Impermeable |

tested on: not listed separately; assay: Drug metabolism in mouse liver microsomes at 5 uM after 20 mins in presence of NADPH; format: ADME, microsome; settings: read-out: Drug metabolism

| Structure (SMILES) | metabolised at 20 min, 5 µM |
| --- | --- |
| O=c1c2nccn2c2cc(F)c(-c3ccncc3)cc2n1C1CC1 | 81% |

tested on: Escherichia coli; assay: Antibacterial activity against Escherichia coli K-12 MG1655 after 20 to 22 hrs; settings: K-12 substr. MG1655

| Structure (SMILES) | MIC |
| --- | --- |
| N[C@H]1CCN(c2cc3c(cc2F)c2nc[nH]c2c(=O)n3C2CC2)C1 | 64 µg/mL (≈ 196 µM) |
| CC(=O)Nc1ccc(/C=c2\c3ccccc3c3c2n2ccnc2c(=O)n3C)cc1 | > 64 µg/mL |
| O=c1c2nccn2c2cc(F)c(-c3ccncc3)cc2n1C1CC1 | 32 µg/mL (≈ 99.9 µM) |

tested on: not listed separately; assay: Solubility of the compound in water; format: physicochemical; settings: buffer

| Structure (SMILES) | solubility |
| --- | --- |
| CC(=O)Nc1ccc(/C=c2\c3ccccc3c3c2n2ccnc2c(=O)n3C)cc1 | Insoluble |

target: hERG (KCNH2) (Homo sapiens, UniProt Q12809); assay: Inhibition of human ERG transfected in CHO cells at 10 uM by patch clamp method relative to control; format: cell-based; settings: CHO cells transfected with human ERG
Sequence (Q12809 whole entry): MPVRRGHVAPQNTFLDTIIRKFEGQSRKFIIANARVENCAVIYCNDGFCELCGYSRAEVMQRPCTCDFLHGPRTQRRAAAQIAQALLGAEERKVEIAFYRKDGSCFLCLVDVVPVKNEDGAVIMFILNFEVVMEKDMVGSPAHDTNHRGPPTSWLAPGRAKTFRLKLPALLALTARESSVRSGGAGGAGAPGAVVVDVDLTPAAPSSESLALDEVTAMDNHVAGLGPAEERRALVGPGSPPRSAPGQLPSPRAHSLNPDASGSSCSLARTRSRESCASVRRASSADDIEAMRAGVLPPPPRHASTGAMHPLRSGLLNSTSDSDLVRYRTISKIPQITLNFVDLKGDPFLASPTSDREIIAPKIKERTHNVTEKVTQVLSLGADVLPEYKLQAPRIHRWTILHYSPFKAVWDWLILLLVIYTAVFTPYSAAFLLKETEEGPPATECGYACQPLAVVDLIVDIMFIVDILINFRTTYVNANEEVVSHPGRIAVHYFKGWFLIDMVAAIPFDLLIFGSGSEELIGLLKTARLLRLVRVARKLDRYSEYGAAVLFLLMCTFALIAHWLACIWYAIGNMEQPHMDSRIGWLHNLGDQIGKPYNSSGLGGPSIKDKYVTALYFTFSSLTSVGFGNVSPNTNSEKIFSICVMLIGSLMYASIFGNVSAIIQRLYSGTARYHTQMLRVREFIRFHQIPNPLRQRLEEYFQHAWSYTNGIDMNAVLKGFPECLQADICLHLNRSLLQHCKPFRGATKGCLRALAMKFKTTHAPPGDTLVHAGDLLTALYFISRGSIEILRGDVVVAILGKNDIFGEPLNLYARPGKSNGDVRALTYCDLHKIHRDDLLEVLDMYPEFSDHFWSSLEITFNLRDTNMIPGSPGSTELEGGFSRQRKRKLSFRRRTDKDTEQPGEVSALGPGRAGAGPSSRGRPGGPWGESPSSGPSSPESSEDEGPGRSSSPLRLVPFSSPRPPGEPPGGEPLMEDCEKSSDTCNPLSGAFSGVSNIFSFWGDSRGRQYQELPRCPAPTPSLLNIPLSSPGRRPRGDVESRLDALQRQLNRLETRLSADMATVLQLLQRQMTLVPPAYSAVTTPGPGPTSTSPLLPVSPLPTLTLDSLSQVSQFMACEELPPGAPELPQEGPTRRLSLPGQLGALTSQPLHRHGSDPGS

| Structure (SMILES) | inhibition at 10 µM |
| --- | --- |
| CC(=O)Nc1ccc(/C=c2\c3ccccc3c3c2n2ccnc2c(=O)n3C)cc1 | > 50% |

tested on: Escherichia coli; assay: Antibacterial activity against tolC-deficient Escherichia coli K-12 MG1655 after 20 to 22 hrs; format: functional; settings: K-12 substr. MG1655

| Structure (SMILES) | MIC |
| --- | --- |
| N[C@H]1CCN(c2cc3c(cc2F)c2nc[nH]c2c(=O)n3C2CC2)C1 | 0.5 µg/mL (≈ 1.53 µM) |
| CC(=O)Nc1ccc(/C=c2\c3ccccc3c3c2n2ccnc2c(=O)n3C)cc1 | < 0.125 µg/mL |
| O=c1c2nccn2c2cc(F)c(-c3ccncc3)cc2n1C1CC1 | < 0.125 µg/mL |

tested on: Escherichia coli; assay: Antibacterial activity against hyperpermeable Escherichia coli D22 harboring LpxC mutant after 20 to 22 hrs; settings: not given

| Structure (SMILES) | MIC |
| --- | --- |
| N[C@H]1CCN(c2cc3c(cc2F)c2nc[nH]c2c(=O)n3C2CC2)C1 | 16 µg/mL (≈ 48.9 µM) |
| CC(=O)Nc1ccc(/C=c2\c3ccccc3c3c2n2ccnc2c(=O)n3C)cc1 | > 64 µg/mL |

tested on: not listed separately; assay: Metabolic stability in rat plasma at 1 uM after 4 hrs; format: ADME, cell-free; settings: read-out: Stability

| Structure (SMILES) | remaining at 4 h, 1 µM |
| --- | --- |
| O=c1c2nccn2c2cc(F)c(-c3ccncc3)cc2n1C1CC1 | 80 to 120% |

tested on: Escherichia coli; assay: Antibacterial activity against tolC-deficient fluoroquinolones-sensitive Escherichia coli JC7623 clinical isolate harboring wild type DNA gyrase after 20 to 22 hrs; settings: not given

| Structure (SMILES) | MIC |
| --- | --- |
| CC(=O)Nc1ccc(/C=c2\c3ccccc3c3c2n2ccnc2c(=O)n3C)cc1 | 0.063 µg/mL (≈ 0.165 µM) |
| O=c1c2nccn2c2cc(F)c(-c3ccncc3)cc2n1C1CC1 | 0.063 µg/mL (≈ 0.197 µM) |

tested on: not listed separately; assay: Drug metabolism in rat liver microsomes at 5 uM after 20 mins in presence of NADPH; format: ADME, microsome; settings: read-out: Drug metabolism

| Structure (SMILES) | metabolised at 20 min, 5 µM |
| --- | --- |
| O=c1c2nccn2c2cc(F)c(-c3ccncc3)cc2n1C1CC1 | 68% |

tested on: not listed separately; assay: Cytotoxicity against human HepG2 cells assessed as decrease in cell viability after 40 hrs by Celltiter Glo assay; settings: not given

| Structure (SMILES) | CC50 at 40 h |
| --- | --- |
| CC(=O)Nc1ccc(/C=c2\c3ccccc3c3c2n2ccnc2c(=O)n3C)cc1 | 8.4 µM |

tested on: Escherichia coli; assay: Antibacterial activity against tolC-deficient fluoroquinolones-resistant Escherichia coli W4753 clinical isolate harboring DNA gyrase S83L/D87N/ParC S80I/ParE S458A mutant after 20 to 22 hrs; settings: not given

| Structure (SMILES) | MIC |
| --- | --- |
| CC(=O)Nc1ccc(/C=c2\c3ccccc3c3c2n2ccnc2c(=O)n3C)cc1 | 2 µg/mL (≈ 5.23 µM) |
| O=c1c2nccn2c2cc(F)c(-c3ccncc3)cc2n1C1CC1 | 0.5 µg/mL (≈ 1.56 µM) |

tested on: L5178Y; assay: Genotoxicity in mouse L5178Y cells after 23 hrs in absence of S9 fraction by micronucleus test; format: toxicity, cell-based; settings: not given

| Structure (SMILES) | Activity |
| --- | --- |
| O=c1c2nccn2c2cc(F)c(-c3ccncc3)cc2n1C1CC1 | Toxic |

tested on: Pseudomonas aeruginosa; assay: Antibacterial activity against Pseudomonas aeruginosa PAO1 after 20 to 22 hrs; format: functional; settings: not given

| Structure (SMILES) | MIC |
| --- | --- |
| N[C@H]1CCN(c2cc3c(cc2F)c2nc[nH]c2c(=O)n3C2CC2)C1 | 64 µg/mL (≈ 196 µM) |
| CC(=O)Nc1ccc(/C=c2\c3ccccc3c3c2n2ccnc2c(=O)n3C)cc1 | > 64 µg/mL |
| O=c1c2nccn2c2cc(F)c(-c3ccncc3)cc2n1C1CC1 | > 64 µg/mL |

tested on: L5178Y; assay: Genotoxicity in mouse L5178Y cells after 3 hrs in presence of S9 fraction by micronucleus test; format: toxicity, cell-based; settings: s9, 3 h

| Structure (SMILES) | Activity |
| --- | --- |
| O=c1c2nccn2c2cc(F)c(-c3ccncc3)cc2n1C1CC1 | Toxic |

tested on: Staphylococcus aureus; assay: Ratio of MIC for methicillin-resistant Staphylococcus aureus ATCC 33592 in presence of 50% mouse serum to MIC for methicillin-resistant Staphylococcus aureus ATCC 33592 in absence of 50% mouse serum; format: functional; settings: not given

| Structure (SMILES) | Ratio |
| --- | --- |
| CC(=O)Nc1ccc(/C=c2\c3ccccc3c3c2n2ccnc2c(=O)n3C)cc1 | >32 |

tested on: Escherichia coli; assay: Antibacterial activity against ESBL producing Escherichia coli ATCC 35218 after 20 to 22 hrs; format: functional; settings: not given

| Structure (SMILES) | MIC |
| --- | --- |
| N[C@H]1CCN(c2cc3c(cc2F)c2nc[nH]c2c(=O)n3C2CC2)C1 | 16 µg/mL (≈ 48.9 µM) |
| CC(=O)Nc1ccc(/C=c2\c3ccccc3c3c2n2ccnc2c(=O)n3C)cc1 | > 64 µg/mL |
| O=c1c2nccn2c2cc(F)c(-c3ccncc3)cc2n1C1CC1 | 16 µg/mL (≈ 49.9 µM) |

tested on: Pseudomonas aeruginosa; assay: Antibacterial activity against Pseudomonas aeruginosa PAO750 harboring mexAB-oprM/mexCD-oprJ/mexEF-oprN/mexXY/opmH/mexJK/pscC deletion mutant after 20 to 22 hrs; format: functional; settings: not given

| Structure (SMILES) | MIC |
| --- | --- |
| N[C@H]1CCN(c2cc3c(cc2F)c2nc[nH]c2c(=O)n3C2CC2)C1 | 0.5 µg/mL (≈ 1.53 µM) |
| CC(=O)Nc1ccc(/C=c2\c3ccccc3c3c2n2ccnc2c(=O)n3C)cc1 | > 64 µg/mL |
| O=c1c2nccn2c2cc(F)c(-c3ccncc3)cc2n1C1CC1 | 8 µg/mL (≈ 25 µM) |

tested on: not listed separately; assay: Metabolic stability in mouse liver microsomes; format: ADME, microsome; settings: not given

| Structure (SMILES) | Stability |
| --- | --- |
| CC(=O)Nc1ccc(/C=c2\c3ccccc3c3c2n2ccnc2c(=O)n3C)cc1 | Unstable |

tested on: Staphylococcus aureus; assay: Antibacterial activity against methicillin-resistant Staphylococcus aureus ATCC 33592 after 20 to 22 hrs in presence of 50% calf fetal serum; format: functional, organism-based; settings: not given

| Structure (SMILES) | Activity |
| --- | --- |
| N[C@H]1CCN(c2cc3c(cc2F)c2nc[nH]c2c(=O)n3C2CC2)C1 | Active |
| O=c1c2nccn2c2cc(F)c(-c3ccncc3)cc2n1C1CC1 | Active |

tested on: Staphylococcus aureus; assay: Antibacterial activity against methicillin-resistant Staphylococcus aureus ATCC 33592 after 20 to 22 hrs; format: functional; settings: not given

| Structure (SMILES) | MIC |
| --- | --- |
| N[C@H]1CCN(c2cc3c(cc2F)c2nc[nH]c2c(=O)n3C2CC2)C1 | 16 µg/mL (≈ 48.9 µM) |
| CC(=O)Nc1ccc(/C=c2\c3ccccc3c3c2n2ccnc2c(=O)n3C)cc1 | 0.25 µg/mL (≈ 0.654 µM) |
| O=c1c2nccn2c2cc(F)c(-c3ccncc3)cc2n1C1CC1 | 4 µg/mL (≈ 12.5 µM) |

tested on: Staphylococcus aureus; assay: Ratio of MIC for methicillin-resistant Staphylococcus aureus ATCC 33592 in presence of 50% calf fetal serum to MIC for methicillin-resistant Staphylococcus aureus ATCC 33592 in absence of 50% calf fetal serum; format: functional; settings: not given

| Structure (SMILES) | Ratio |
| --- | --- |
| CC(=O)Nc1ccc(/C=c2\c3ccccc3c3c2n2ccnc2c(=O)n3C)cc1 | >32 |

tested on: not listed separately; assay: Chemical stability in pH 7.4 buffer solution; format: physicochemical; settings: not given

| Structure (SMILES) | Stability |
| --- | --- |
| CC(=O)Nc1ccc(/C=c2\c3ccccc3c3c2n2ccnc2c(=O)n3C)cc1 | Stable |

tested on: not listed separately; assay: Drug degradation in DMSO solution in presence of glutathione measured within 1 hr; format: physicochemical; settings: DMSO solution with glutathione; read-out: Drug degradation

| Structure (SMILES) | degraded at 1 h |
| --- | --- |
| CC(=O)Nc1ccc(/C=c2\c3ccccc3c3c2n2ccnc2c(=O)n3C)cc1 | > 50% |
